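These data come from cells grown in 96-well plates and exposed to compound for 48 hours at five concentrations. Abbreviation: GI50, concentration required for 50% inhibition of growth.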 Calls of active or inactive are those of the source. Cut-off read from the data, not from the text of the source: active = GI50 up to about 1.1 µM and inactive = higher.
Experiments:
Assay in all cases: NCI-60 cell line screen, 48 h
DMS-114 = tested on: DMS-114
HOP-18 = tested on: HOP-18
SNB-78 = tested on: SNB-78
DLD-1 = tested on: DLD-1
DMS-273 = tested on: DMS-273
XF498 = tested on: XF498
KM-20L2 = tested on: KM-20L2
RXF 631 = tested on: RXF 631
NCI/ADR-RES = tested on: NCI/ADR-RES

Structure (SMILES) | GI50 (DMS-114) | GI50 (HOP-18) | GI50 (SNB-78) | GI50 (DLD-1) | GI50 (DMS-273) | GI50 (XF498) | GI50 (KM-20L2) | GI50 (RXF 631) | GI50 (NCI/ADR-RES)
COc1ccc2c(CN3CCCCC3CO)cc3cc(OC)c(OC)cc3c2c1 (stereo unspecified) | 3.49 µM (inactive) | 13.7 µM (inactive) | 6.93 µM (inactive) | 6.18 µM (inactive) | 2.65 µM (inactive) | 5.36 µM (inactive) | 3.64 µM (inactive) |  | 
C/C(CC(=O)Nc1ccc(NC(=O)C/C(C)=N\NC(N)=O)cc1)=N/NC(N)=O | > 35.6 µM (inactive) | 63 µM (inactive) | > 100 µM (inactive) | > 45.2 µM (inactive) | > 37.1 µM (inactive) | > 92.3 µM (inactive) | > 100 µM (inactive) | 33 µM (inactive) | 
COc1cccc2c1OC1Sc3ccccc3-c3nn(-c4ccccc4)c-2c31 (stereo unspecified) | > 100 µM (inactive) | > 100 µM (inactive) | > 100 µM (inactive) | > 100 µM (inactive) | > 100 µM (inactive) | > 100 µM (inactive) | > 100 µM (inactive) | > 100 µM (inactive) | 
CN(C)CCNC(=O)c1cccc2[nH]c(-c3ccccc3)nc12 | 17.3 µM (inactive) | 11.9 µM (inactive) | 32.1 µM (inactive) | 16.3 µM (inactive) | 14.5 µM (inactive) |  |  | 24.4 µM (inactive) | 
O=C(CSc1nnc(Cc2ccccc2)o1)Nc1cccc(Cl)c1 |  | 87.1 µM (inactive) | > 100 µM (inactive) | > 100 µM (inactive) | 83 µM (inactive) |  | > 100 µM (inactive) |  | 
CC1C[C@@H]2C(=O)NC(=O)[C@@H]2c2c1c1ccccc1n2C (stereo partly specified) | > 100 µM (inactive) |  | > 100 µM (inactive) | > 100 µM (inactive) | > 100 µM (inactive) | > 100 µM (inactive) | > 100 µM (inactive) | > 100 µM (inactive) | 
COc1ccccc1Cc1ccc(C2C=CC3(CC(=O)C=C3C)C(=O)C2)o1 (stereo unspecified) |  |  |  |  |  |  |  |  | 24.7 µM (inactive)
COC1OC(CBr)C(OC(=O)c2ccccc2)C(O)C1Br (stereo unspecified) |  | > 100 µM (inactive) | > 100 µM (inactive) | > 100 µM (inactive) | > 100 µM (inactive) | > 10 µM (inactive) | > 100 µM (inactive) |  | 
CN(C(=N)c1ccccc1)c1ccccc1 |  | > 100 µM (inactive) | > 100 µM (inactive) | > 100 µM (inactive) | > 100 µM (inactive) |  | > 100 µM (inactive) |  | 
Nc1ccc2ncc(Nc3ccc(Cl)c(Cl)c3)nc2c1 | 13 µM (inactive) |  | 26.9 µM (inactive) | 29.6 µM (inactive) | 23.2 µM (inactive) | 32.2 µM (inactive) | 31.8 µM (inactive) |  | 
C[N+]1(C)C/C(=C\C=C\c2ccccc2)C(=O)/C(=C/C=C/c2ccccc2)C1 | 2.72 µM (inactive) | > 42.2 µM (inactive) | 6.12 µM (inactive) | 16.1 µM (inactive) | 1.62 µM (inactive) | 8.49 µM (inactive) | 14.7 µM (inactive) |  | > 100 µM (inactive)
O=C(CSc1nnc(-c2ccc(/N=C\c3ccc(Cl)cc3)cc2)o1)Nc1ccccc1Cl | > 100 µM (inactive) | > 100 µM (inactive) | 60.8 µM (inactive) |  | > 100 µM (inactive) | > 100 µM (inactive) | > 100 µM (inactive) |  | 
COc1nc(=O)n(COC(CO)CN2C(=O)c3ccccc3C2=O)cc1Cc1cccc(OCc2ccccc2)c1 (stereo unspecified) | 22 µM (inactive) | 27.5 µM (inactive) | 31.6 µM (inactive) | 28.3 µM (inactive) | 19.4 µM (inactive) |  | 26.2 µM (inactive) |  | 
CCOC(=O)/C=C(\C(=O)OCC)n1ccc(N)nc1=O |  |  |  |  |  |  |  |  | > 100 µM (inactive)
C=C(Br)C(C)(Br)CCC(Br)C(C)(C)Cl (stereo unspecified) |  |  |  |  |  |  |  |  | 23.7 µM (inactive)
Cc1ccc2nc(N)[nH]c(=O)c2c1Sc1ccncc1 | 12.6 µM (inactive) | > 100 µM (inactive) | > 100 µM (inactive) | > 100 µM (inactive) | 37.2 µM (inactive) | 22.8 µM (inactive) | 10 µM (inactive) |  | 
CC1(c2ccccc2)CC(c2ccccc2)=NO1 (stereo unspecified) | > 100 µM (inactive) | > 100 µM (inactive) | > 100 µM (inactive) | > 100 µM (inactive) | > 100 µM (inactive) |  |  |  | 
O=C(NC(=O)c1ccccc1[N+](=O)[O-])Nc1ccc(Oc2ncc(Br)cn2)c(Cl)c1 | < 0.0184 µM (active) | 0.064 µM (active) |  | 0.0148 µM (active) | 0.0165 µM (active) | 0.00723 µM (active) | 0.022 µM (active) | 0.0284 µM (active) | 0.0198 µM (active)

Structure (SMILES) | GI50 (DMS-114) | GI50 (HOP-18) | GI50 (SNB-78) | GI50 (DLD-1) | GI50 (DMS-273) | GI50 (XF498) | GI50 (KM-20L2) | GI50 (RXF 631) | GI50 (NCI/ADR-RES)
O=c1nc(NC(c2ccccc2)(c2ccccc2)c2ccccc2)ccn1CCO | 52.7 µM (inactive) | > 100 µM (inactive) | > 100 µM (inactive) | 39.6 µM (inactive) |  |  | > 100 µM (inactive) |  | 
CC(=O)c1c(O)ccc2c1CC(CC=O)O2 (stereo unspecified) | 20.1 µM (inactive) |  | 64.6 µM (inactive) | 32.7 µM (inactive) |  | > 100 µM (inactive) | > 100 µM (inactive) | 65 µM (inactive) | 
c1ccc(CCCC2Sc3cccc4cccc(c34)S2)cc1 | > 100 µM (inactive) |  | > 100 µM (inactive) | > 100 µM (inactive) | > 100 µM (inactive) | > 100 µM (inactive) | 54.7 µM (inactive) |  | 
C/C(=N\NC(=O)c1ccccc1O)c1c(O)cc(C)oc1=O | 90.6 µM (inactive) | 27.2 µM (inactive) | > 100 µM (inactive) | 49.8 µM (inactive) |  |  | > 100 µM (inactive) |  | 
Cc1cccc(C)c1N1C(=O)C(=O)C(c2nc3ccccc3s2)/C(=N/NC(=O)NN)C1=O (stereo unspecified) | > 100 µM (inactive) | > 100 µM (inactive) | > 100 µM (inactive) | > 100 µM (inactive) | > 100 µM (inactive) | > 100 µM (inactive) | > 100 µM (inactive) |  | 
CCOC(=O)C1(c2ccccc2)CCC(=O)CC1 | > 100 µM (inactive) | > 100 µM (inactive) | > 100 µM (inactive) | > 100 µM (inactive) | > 100 µM (inactive) |  | > 100 µM (inactive) | > 100 µM (inactive) | 
O=C(O)CCSC(=O)Nc1ccccc1Cl | > 100 µM (inactive) | > 100 µM (inactive) | > 100 µM (inactive) | > 100 µM (inactive) | > 100 µM (inactive) | > 100 µM (inactive) | > 100 µM (inactive) | > 100 µM (inactive) | 
COC(=O)C1=CC2C(=O)OC1C1C(=O)NC(=O)C21 (stereo unspecified) | > 100 µM (inactive) | > 100 µM (inactive) | > 100 µM (inactive) | > 100 µM (inactive) | > 100 µM (inactive) | > 100 µM (inactive) | > 100 µM (inactive) | > 100 µM (inactive) | 
CCCCCCCCCCCCNC(=S)OCCCC | 34.8 µM (inactive) | > 100 µM (inactive) | > 100 µM (inactive) | > 100 µM (inactive) | > 100 µM (inactive) | > 100 µM (inactive) | > 100 µM (inactive) | > 100 µM (inactive) | 
COC(=O)c1ccc(CS(=O)(=O)c2ccccc2)cc1 | 64.3 µM (inactive) | > 100 µM (inactive) | > 100 µM (inactive) | 91.8 µM (inactive) | 45.4 µM (inactive) | > 100 µM (inactive) | 61.5 µM (inactive) | > 100 µM (inactive) | 
CCOC(=O)C(C(=O)OCC)=C1N[C@H](C(=O)OCC)CS1 |  | > 100 µM (inactive) | > 100 µM (inactive) | > 100 µM (inactive) |  | > 100 µM (inactive) | > 100 µM (inactive) | > 100 µM (inactive) | 
C#C[C@]1(O)CC[C@H]2[C@@H]3CCC4=C/C(=N/NC(=O)c5cccc6c(=O)c7ccccc7[nH]c56)CCC4[C@H]3CC[C@@]21C (stereo partly specified) |  |  |  |  |  |  |  |  | 55.5 µM (inactive)
O=[N+]([O-])C1C2C=CC(C2)[C@H]1c1ccccc1Cl (stereo partly specified) |  | > 100 µM (inactive) | > 100 µM (inactive) | 83.6 µM (inactive) | > 100 µM (inactive) | > 77.1 µM (inactive) | > 100 µM (inactive) | 76.2 µM (inactive) | 
CN1N=C2c3ccccc3CC[C@H]2C1c1ccccc1 (stereo partly specified) | 22.5 µM (inactive) | > 100 µM (inactive) | 83.9 µM (inactive) | 41.8 µM (inactive) | 26.6 µM (inactive) |  | 36.9 µM (inactive) |  | 
Brc1ccc(C[N+]23CN4CN(CN(C4)C2)C3)cc1 | 23.6 µM (inactive) |  | 83.2 µM (inactive) | > 10 µM (inactive) | 22.5 µM (inactive) |  | 31.1 µM (inactive) |  | 
CC(C)C(N)=O [ISOBUTYRAMIDE] | > 5000 µM (inactive) | > 5000 µM (inactive) | > 5000 µM (inactive) | > 5000 µM (inactive) | > 5000 µM (inactive) |  |  |  | 
N#C/C(=C\c1ccc(O)c(O)c1)C(N)=S [TYRPHOSTIN 47] | 18.2 µM (inactive) | > 100 µM (inactive) | > 100 µM (inactive) | 64.6 µM (inactive) | > 79.1 µM (inactive) | > 100 µM (inactive) | > 70.5 µM (inactive) |  | 

— ChEMBL document CHEMBL1201862, “PubChem BioAssay data set” (2004)
